Data from the supplement of paper PMC5908809.

Columns and labels:
[1] = system: normal NK cells expanded with K562-aAPC; test: percent inhibition of viability; higher = more inhibition; conditions: 72 h, IL-2 2.5 ng/mL
Procedure: (§1)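 Drug sensitivity and resistance testing on K562-aAPC-expanded normal NK cells: 5 concentrations (10-fold steps over a 10,000-fold range), 72 h at 37 °C, viability by CellTiter-Glo normalised to DMSO and benzethonium chloride controls; DSS from the fitted curve.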

[2] = system: DERL-7 (IL-2 2.5 ng/mL); test: as above; conditions: 72 h
[3] = system: IMC-1 (IL-2 20 ng/mL); test: as above; conditions: 72 h
[4] = system: KAI3 (IL-2 2.5 ng/mL); test: as above; conditions: 72 h
[5] = system: KHYG-1 (IL-2 2.5 ng/mL); test: as above; conditions: 72 h
[6] = system: NK-92 (IL-2 2.5 ng/mL); test: as above; conditions: 72 h
[7] = system: NK-YS (IL-2 2.5 ng/mL); test: as above; conditions: 72 h
[8] = system: NKL (IL-2 2.5 ng/mL); test: as above; conditions: 72 h
[9] = system: SNK-6 (IL-2 2.5 ng/mL); test: as above; conditions: 72 h
[10] = system: YT (IL-2 2.5 ng/mL); test: as above; conditions: 72 h
[11] = system: normal primary NK cells, pool 1 (3 donors) (IL-2 2.5 ng/mL); test: as above; conditions: 72 h
[12] = system: normal primary NK cells, pool 1 (3 donors), resting (IL-2 0 ng/mL); test: as above; conditions: 72 h
[13] = system: normal primary NK cells, pool 2 (3 donors) (IL-2 2.5 ng/mL); test: as above; conditions: 72 h
[14] = system: normal primary NK cells, pool 3 (3 donors) (IL-2 2.5 ng/mL); test: as above; conditions: 72 h
[15] = system: normal NK cells expanded with K562-aAPC; test: drug sensitivity score (DSS) (DSS units); higher = more sensitive; extreme values may be limits of the assay; conditions: 72 h; IL-2 2.5 ng/mL
Procedure: as §1

[16] = system: DERL-7 (IL-2 2.5 ng/mL); test: as above; conditions: 72 h
[17] = system: IMC-1 (IL-2 20 ng/mL); test: as above; conditions: 72 h
[18] = system: KAI3 (IL-2 2.5 ng/mL); test: as above; conditions: 72 h
[19] = system: KHYG-1 (IL-2 2.5 ng/mL); test: as above; conditions: 72 h
[20] = system: NK-92 (IL-2 2.5 ng/mL); test: as above; conditions: 72 h
[21] = system: NK-YS (IL-2 2.5 ng/mL); test: as above; conditions: 72 h
[22] = system: NKL (IL-2 2.5 ng/mL); test: as above; conditions: 72 h
[23] = system: SNK-6 (IL-2 2.5 ng/mL); test: as above; conditions: 72 h
[24] = system: YT (IL-2 2.5 ng/mL); test: as above; conditions: 72 h
[25] = system: normal primary NK cells, pool 1 (3 donors) (IL-2 2.5 ng/mL); test: as above; conditions: 72 h
[26] = system: normal primary NK cells, pool 1 (3 donors), resting (IL-2 0 ng/mL); test: as above; conditions: 72 h
[27] = system: normal primary NK cells, pool 2 (3 donors) (IL-2 2.5 ng/mL); test: as above; conditions: 72 h
[28] = system: normal primary NK cells, pool 3 (3 donors) (IL-2 2.5 ng/mL); test: as above; conditions: 72 h

CNC(=O)c1ccc(N2C(=S)N(c3cnc(C#N)c(C(F)(F)F)c3)C(=O)C23CCC3)cc1F [ARN 509] (max concentration tested 10000 nM)
percent inhibition of viability [%]
Conditions | 1 nM | 10 nM | 100 nM | 1000 nM | 10000 nM
[1] | 0.72 | 1.64 | 2.47 | 20 | 14.2
[2] | 6.41 | -1.09 | -0.93 | -13.3 | -12.6
[3] | 2.81 | -1.31 | 5.83 | 9.26 | 16.9
[4] | -2.56 | -12.9 | 0.32 | 4.54 | 27.9
[5] | -1.73 | -3.05 | 1.87 | 8.59 | 9.64
[6] | -3.11 | -4.21 | 2.28 | -1.18 | 23
[7] | -3.22 | -1.75 | -0.61 | 1.75 | 15.7
[8] | -5.58 | -11.3 | -0.18 | -5.48 | 3.63
[9] | 16.7 | -1.7 | 14.6 | 33.1 | 24.3
[10] | 2.58 | 2.98 | 4.62 | 0.81 | 10.2
[11] | -11.3 | 4.68 | -6.94 | -10.6 | 10.8
[12] | -0.17 | 11.7 | -4.44 | -10.2 | 15.5
[13] | -8.15 | -8.75 | -5.23 | -6.28 | 8.97
[14] | -7.92 | -6.67 | -6.21 | -10.2 | 3.54

Conditions | drug sensitivity score
[15] | 3.05
[16] | 0
[17] | 0.78
[18] | 1.88
[19] | 0
[20] | 0.72
[21] | 0.46
[22] | 0
[23] | 7.62
[24] | 0
[25] | 0
[26] | 0.11
[27] | 0
[28] | 0

CCc1cc2c(cc1N1CCC(N3CCOCC3)CC1)C(C)(C)c1[nH]c3cc(C#N)ccc3c1C2=O [Alectinib] (max concentration tested 1000 nM)
percent inhibition of viability [%]
Conditions | 0.1 nM | 1 nM | 10 nM | 100 nM | 1000 nM
[1] | 0.14 | -2.95 | -2.33 | -2.36 | 4.52
[2] | -1.51 | -2.79 | -1.59 | -8.82 | 13
[3] | -2.94 | 1.06 | -2.15 | -2.79 | -0.64
[4] | -3.74 | 3.89 | 3.63 | 1.36 | -4
[5] | -3.94 | 0.6 | -1.88 | 10.3 | 14.5
[6] | -7.49 | -8.89 | -12 | 9.46 | 24.4
[7] | -5.67 | -3.61 | -7.75 | 6.14 | 18.4
[8] | -9 | -7.92 | -11.6 | -10.4 | 20.1
[9] | -2.43 | -0.7 | -18.9 | -29 | -2.44
[10] | -3.8 | -4.08 | -6.26 | 0.11 | 2.48
[11] | -1.7 | -9.82 | -10.4 | -1.45 | 0.6
[12] | -6.37 | -4.08 | -8.77 | 1.83 | 12.5
[13] | -3.03 | -7.68 | -3.35 | -8.46 | 3.39
[14] | -8.17 | -9.65 | -5.32 | -8.21 | -0.39

Conditions | drug sensitivity score
[15] | 0
[16] | 0.02
[17] | 0
[18] | 0
[19] | 0.86
[20] | 2.08
[21] | 1.14
[22] | 0.33
[23] | 0
[24] | 0
[25] | 0
[26] | 0.17
[27] | 0
[28] | 0

COc1cc(OC2CCN(C)CC2)ccc1Nc1ncc2c(n1)n(C1CCCC1)c(=O)n2C [AZ 3146] (max concentration tested 10000 nM)
percent inhibition of viability [%]
Conditions | 1 nM | 10 nM | 100 nM | 1000 nM | 10000 nM
[1] | -2.2 | 0.53 | -2.22 | 4.68 | 95.5
[2] | -4.12 | 4.05 | 2.89 | 9.9 | 98.6
[3] | -1.3 | 2.72 | 8.86 | 9.14 | 100
[4] | -6.95 | -0.01 | 1.16 | 23.6 | 97.9
[5] | 3.47 | 1.13 | 9.55 | 13.1 | 104
[6] | 0.39 | -0.68 | 10.8 | -7.78 | 55.7
[7] | 1 | 1.98 | 6.37 | 19 | 93.4
[8] | -14.9 | -7.34 | -5.85 | 12.7 | 92.9
[9] | 16.5 | 16.6 | 28.5 | 15.2 | 90
[10] | 2.24 | 1.06 | 7.18 | 13.3 | 92.1
[11] | -2.73 | -14.2 | -10.5 | 0.05 | 89.1
[12] | 8.87 | -6.36 | 1.82 | 9.09 | 81.8
[13] | -14.1 | -0.67 | 12.1 | 6.73 | 74.2
[14] | -14.2 | 1.88 | 2.52 | 5.03 | 80

Conditions | drug sensitivity score
[15] | 5.96
[16] | 7.08
[17] | 7.02
[18] | 9.06
[19] | 7.83
[20] | 2.49
[21] | 8.24
[22] | 7.26
[23] | 7.53
[24] | 7.34
[25] | 4.98
[26] | 6.04
[27] | 5.18
[28] | 5.18

CC(C)(O)CC(=O)NCCn1ccc2ncnc(Nc3ccc(Oc4cccc(C(F)(F)F)c4)c(Cl)c3)c21 [TAK-285] (max concentration tested 2500 nM)
percent inhibition of viability [%]
Conditions | 0.25 nM | 2.5 nM | 25 nM | 250 nM | 2500 nM
[1] | -3.9 | -5.59 | -4.49 | -4.65 | -10.5
[2] | 0.57 | -0.5 | -0.21 | -6.99 | 3.24
[3] | -2.98 | -2.02 | -5.78 | -4.36 | -2.28
[4] | 3.24 | 6.26 | -7.58 | 2.41 | -4.47
[5] | -0.17 | -1.01 | -1.95 | 2.13 | -6.23
[6] | 3.91 | -1.52 | -0.33 | 10.9 | 11.6
[7] | -1.3 | -5.16 | -2.82 | 0.41 | -0.02
[8] | -13.2 | -11.7 | -12.7 | -16.1 | -29.3
[9] | 5.49 | 3.7 | -2.84 | -9.96 | -12.5
[10] | 0.86 | -3.2 | 0.37 | 1.42 | -3.68
[11] | -5.45 | -7.93 | -3.5 | -0.56 | 2.32
[12] | -19.2 | -12 | 10 | 5.74 | 6.13
[13] | -6.38 | -6.44 | -5.09 | -7.05 | -6.29
[14] | -5.51 | -2.63 | -4.05 | -8.03 | -14.8

Conditions | drug sensitivity score
[15] | 0.89
[16] | 0
[17] | 0.89
[18] | 0
[19] | 0
[20] | 0.37
[21] | 0
[22] | 0.89
[23] | 0
[24] | 0
[25] | 0
[26] | 0.01
[27] | 0.89
[28] | 0.89

O=C(O)CCCCC(CCSCc1ccccc1)SCc1ccccc1 (stereo not given) [CPI-613] (max concentration tested 10000 nM)
percent inhibition of viability [%]
Conditions | 1 nM | 10 nM | 100 nM | 1000 nM | 10000 nM
[1] | -7.1 | -6.01 | -4.94 | -0.06 | 8.33
[2] | 0.05 | -0.43 | -0.74 | -7.69 | 0.16
[3] | -2.98 | -1.62 | -2.71 | -2.84 | 9.03
[4] | 2.88 | -5.51 | 1.38 | 3.07 | 13.6
[5] | -0.71 | -6.53 | -1.09 | 2.22 | 14.3
[6] | -12.9 | -8.45 | -13 | 17.1 | 13.7
[7] | -0.06 | -3.64 | -3.63 | 4.79 | 12.5
[8] | -9.11 | -4.72 | -5.85 | 9.97 | -1.95
[9] | 2.68 | 9.26 | 7.02 | 3.27 | 15.4
[10] | -4.82 | -6.21 | -4.86 | 4.79 | 13.6
[11] | -0.75 | 13.6 | 2.91 | 3.14 | 0.88
[12] | -1.85 | 9.03 | 13.2 | 15.7 | 14.9
[13] | -4.63 | 4.64 | 5.89 | 2.06 | 9.6
[14] | -7.27 | -0.78 | 1.21 | 3.31 | 2.34

Conditions | drug sensitivity score
[15] | 0
[16] | 0
[17] | 0
[18] | 0.36
[19] | 0.38
[20] | 1.68
[21] | 0.31
[22] | 0
[23] | 0.07
[24] | 0.45
[25] | 0
[26] | 3.6
[27] | 0
[28] | 0
